Laboratory results as given in patent publication US20090247404A1, “METHOD FOR IMPROVING HARVESTABILITY OF CROPS” (priority 2006, published 2009).

Key:
Assay type in all cases: in vivo
[1] = tested on: cotton (GOSHI, Gossypium hirsutum L.); assay: Test A: field trial, preharvest application of harvest aids alone and with Compound 4 to cotton (cv. Fibermax FM 989 RR); details: for Boll Opening (%) / Desiccation (%) / State of Defoliation (%): 841 g a.i./ha
Description: A field trial was conducted to evaluate the effects of mixtures of Compound 4 with commercial harvest aids on cotton (GOSHI, Gossypium hirsutum L.). Cotton seeds (cv. ‘Fibermax FM 989 RR’) were planted in mid spring season, 3.8 cm deep in a clay soil having 1.8% organic matter and a pH of 6.8. Plots were 9 m long by 3 m wide with rows spaced 96.5 cm apart. Seeds were spaced 10.2 cm apart within the rows. The field was managed using conventional tillage practices, and applications of herbicides and insecticides were used to maintain a healthy crop. The plots were arranged in a randomized complete block design with each treatment being replicated three times. Treatments were applied preharvest over the top of the crop in late summer, when approximately 65% of the bolls had opened, using a backpack sprayer delivering a spray volume of 140 L/ha using a pressure of 276 kPa. Treatments consisted of the commercial harvest aids tribufos and ethephon+AMADS alone and in combination with Compound 4, dissolved or suspended in water. The effects on the treated plants and untreated controls were recorded 4, 11 and 21 days after application. Plants were visually evaluated for harvest aid effects of boll opening, defoliation, desiccation, and whole plant (basal and terminal) regrowth inhibition. Results were calculated as the mean of the three replicates, based on a scale of 0 to 100 where 0 is no effect and 100 is complete expression of the effect.
(§1) Results for Tests A, B1 and B2 are given in Table A, B1 and B2 respectively. Plants were visually evaluated for harvest aid effects of boll opening, defoliation, desiccation, and whole plant (basal and terminal) regrowth inhibition. “State of Defoliation (%)” represents a visual rating at a given DAA of the overall reduction in foliage on treated plants in a plot. It is based on a scale of 0 to 100%, where 0 represents an amount of foliage similar to control plants, and 100 indicates no leaves present. Plant regrowth assessments at a given DAA were made relative to appropriate controls after effects of defoliation were observed. Regrowth of the basal (“plant stalk”, below the top 15.3 cm of the plants) and terminal (“plant terminal”, top 15.3 cm of the plants) portions of the plants were separately evaluated on a visual rating scale of 0 to 100%, where 0 indicates no regrowth, and 100 indicates complete regrowth. The regrowth evaluations involved overall assessment of renewed or continued growth and development, which included: node and internodal development and elongation, and leaf formation, development and growth. These regrowth evaluations were recorded as “Regrowth %” and subsequently converted in the tables to “Regrowth Inhibition (%)”, which was calculated as 100%−YT, where YT equals the mean Regrowth % of three replicates for a respective treatment.

[2] = tested on: cotton (GOSHI, Gossypium hirsutum L.); assay: Test B1: field trial, preharvest application of harvest aids alone and with Compound 4 to cotton (cv. DP 434); details: for inhibition at 5 g/ha / inhibition at 10 g/ha / inhibition at 20 g/ha / inhibition at 1262 g/ha / inhibition at 421 g/ha: Gossypium hirsutum
Description: A field trial was conducted to evaluate the effects of mixtures of Compound 4 with commercial harvest aids on cotton (GOSHI, Gossypium hirsutum L.). Delta and Pine Land Co. cotton seeds (cv. ‘DP 434’) were planted in mid spring season, 3.8-cm deep in a fine-texture loam soil comprising 40% sand, 36% silt, and 24% clay. Soil organic matter was 1.8%; pH was 6.6. Plots were 9.1 m long by 3.0 m wide with rows spaced 96.5 cm apart. Seeds were spaced 10.2 cm apart within the rows. The field was managed using conventional tillage practices, and applications of herbicides and insecticides were used to maintain a healthy crop. The plots were arranged in a randomized complete block design with each treatment being replicated four times. Treatments were applied preharvest over the top of the crop in late summer, when approximately 65% of the bolls had opened, using a tractor-mounted sprayer delivering a spray volume of 140 L/ha at a pressure of 241 kPa. Treatments consisted of the commercial harvest aids tribufos, ethephon, and ethephon+AMADS alone and in combination with Compound 4, dissolved or suspended in water. Plants were evaluated for harvest aid effects including defoliation and regrowth inhibition at 4, 7, 14, and/or 22 days after application (DAA). Individual results were recorded and data reported as the means of the three replicates.
as §1

[3] = tested on: cotton (GOSHI, Gossypium hirsutum L.); assay: Test B2: field trial, preharvest application of harvest aids alone and with Compound 4 to cotton (cv. DP 117BRIIRF); details: for inhibition at 5 g/ha / inhibition at 10 g/ha / inhibition at 20 g/ha / inhibition at 1262 g/ha / inhibition at 421 g/ha: Gossypium hirsutum, 336 h
Description: A field trial was conducted to evaluate the effects of mixtures of Compound 4 with commercial harvest aids on cotton (GOSHI, Gossypium hirsutum L.). Delta and Pine Land Co. cotton seeds (cv. ‘DP 117BRIIRF’) were planted in mid spring season, 2.0-cm deep in a clay soil. Plots were 12.19 m long by 3.86 m wide with rows spaced 96.5 cm apart. The field was managed using conventional tillage practices, and applications of herbicides and insecticides were used to maintain a healthy crop. The plots were arranged in a randomized complete block design with each treatment being replicated four times. Treatments were applied preharvest over the top of the crop in late summer, when approximately 65% of the bolls had opened, using a tractor-mounted sprayer delivering a spray volume of 140.3 L/ha at a pressure of 193 kPa. Treatments consisted of the commercial harvest aids tribufos, ethephon, and ethephon+AMADS alone and in combination with Compound 4, dissolved or suspended in water. Plants were evaluated for harvest aid effects including defoliation and regrowth inhibition at 4, 7, and 14 DAA. Individual results were recorded and data reported as the means of the three replicates.
as §1

[4] = treatments including Compound 4
[5] = plant terminal and plant stalk, 14 DAA

COC(=O)c1nc(C2CC2)nc(N)c1Cl [Compound 4, methyl 6-amino-5-chloro-2-cyclopropyl-4-pyrimidinecarboxylate]
desiccation, combination with Compound 4 compared to ethephon+AMADS or tribufos alone ([1]; 11 days after application): increased
defoliation, combination with Compound 4 compared to ethephon+AMADS or tribufos alone ([1]; 21 days after application): dramatically increased
regrowth inhibition, combination with Compound 4 compared to ethephon+AMADS or tribufos alone ([1]; 21 days after application): dramatically increased
boll opening effects of the commercial harvest aids in combination with Compound 4 ([1]; compared to the untreated plants): did not interfere
inhibition of basal and terminal regrowth [1, 4]: effective for inhibiting both basal and terminal regrowth
State of Defoliation (%) ([2]; 5 g a.i./ha, 4 DAA): 13%
State of Defoliation (%) ([2]; 5 g a.i./ha, 7 DAA): 18%
State of Defoliation (%) ([2]; 5 g a.i./ha, 14 DAA): 23%
State of Defoliation (%) ([2]; 10 g a.i./ha, 4 DAA): 8%
State of Defoliation (%) ([2]; 10 g a.i./ha, 7 DAA): 18%
State of Defoliation (%) ([2]; 10 g a.i./ha, 14 DAA): 21%
State of Defoliation (%) ([2]; 20 g a.i./ha, 4 DAA): 13%
State of Defoliation (%) ([2]; 20 g a.i./ha, 7 DAA): 24%
State of Defoliation (%) ([2]; 20 g a.i./ha, 14 DAA): 23%
inhibition at 5 g/ha ([2]; 336 h, 5 g a.i./ha, 14 DAA, read-out: Plant Stalk (Below 15.3-cm) Regrowth Inhibition (%)): 100%
inhibition at 5 g/ha ([2]; 336 h, 5 g a.i./ha, 14 DAA, read-out: Plant Terminal (Top 15.3-cm) Regrowth Inhibition (%)): 100%
inhibition at 10 g/ha ([2]; 336 h, 10 g a.i./ha, 14 DAA, read-out: Plant Stalk (Below 15.3-cm) Regrowth Inhibition (%)): 100%
inhibition at 10 g/ha ([2]; 336 h, 10 g a.i./ha, 14 DAA, read-out: Plant Terminal (Top 15.3-cm) Regrowth Inhibition (%)): 100%
inhibition at 20 g/ha ([2]; 336 h, 20 g a.i./ha, 14 DAA, read-out: Plant Stalk (Below 15.3-cm) Regrowth Inhibition (%)): 100%
inhibition at 20 g/ha ([2]; 336 h, 20 g a.i./ha, 14 DAA, read-out: Plant Terminal (Top 15.3-cm) Regrowth Inhibition (%)): 100%
inhibition at 5 g/ha ([2]; 528 h, 5 g a.i./ha, 22 DAA, read-out: Plant Stalk (Below 15.3-cm) Regrowth Inhibition (%)): 100%
inhibition at 10 g/ha ([2]; 528 h, 10 g a.i./ha, 22 DAA, read-out: Plant Stalk (Below 15.3-cm) Regrowth Inhibition (%)): 100%
inhibition at 20 g/ha ([2]; 528 h, 20 g a.i./ha, 22 DAA, read-out: Plant Stalk (Below 15.3-cm) Regrowth Inhibition (%)): 100%
regrowth inhibition, addition of Compound 4 compared to ethephon, ethephon+AMADS or tribufos alone [2, 5]: dramatically increased
inhibition of basal and terminal regrowth [2, 4]: effective for inhibiting both basal and terminal regrowth
State of Defoliation (%) ([3]; 5 g a.i./ha, 4 DAA): 3%
State of Defoliation (%) ([3]; 5 g a.i./ha, 7 DAA): 4%
State of Defoliation (%) ([3]; 5 g a.i./ha, 14 DAA): 10%
State of Defoliation (%) ([3]; 10 g a.i./ha, 4 DAA): 3%
State of Defoliation (%) ([3]; 10 g a.i./ha, 7 DAA): 4%
State of Defoliation (%) ([3]; 10 g a.i./ha, 14 DAA): 11%
State of Defoliation (%) ([3]; 20 g a.i./ha, 4 DAA): 4%
State of Defoliation (%) ([3]; 20 g a.i./ha, 7 DAA): 9%
State of Defoliation (%) ([3]; 20 g a.i./ha, 14 DAA): 15%
inhibition at 5 g/ha ([3]; 5 g a.i./ha, 14 DAA, read-out: Plant Stalk (Below 15.3-cm) Regrowth Inhibition (%)): 100%
inhibition at 5 g/ha ([3]; 5 g a.i./ha, 14 DAA, read-out: Plant Terminal (Top 15.3-cm) Regrowth Inhibition (%)): 97%
inhibition at 10 g/ha ([3]; 10 g a.i./ha, 14 DAA, read-out: Plant Stalk (Below 15.3-cm) Regrowth Inhibition (%)): 100%
inhibition at 10 g/ha ([3]; 10 g a.i./ha, 14 DAA, read-out: Plant Terminal (Top 15.3-cm) Regrowth Inhibition (%)): 100%
inhibition at 20 g/ha ([3]; 20 g a.i./ha, 14 DAA, read-out: Plant Stalk (Below 15.3-cm) Regrowth Inhibition (%)): 100%
inhibition at 20 g/ha ([3]; 20 g a.i./ha, 14 DAA, read-out: Plant Terminal (Top 15.3-cm) Regrowth Inhibition (%)): 100%
regrowth inhibition, addition of Compound 4 compared to ethephon, ethephon+AMADS or tribufos alone [3, 5]: dramatically increased
inhibition of basal and terminal regrowth [3, 4]: effective for inhibiting both basal and terminal regrowth

O=P(O)(O)CCCl [Ethephon, reference compound]
State of Defoliation (%) ([2]; 1262 g a.i./ha, 4 DAA): 54%
State of Defoliation (%) ([2]; 1262 g a.i./ha, 7 DAA): 73%
State of Defoliation (%) ([2]; 1262 g a.i./ha, 14 DAA): 79%
inhibition at 1262 g/ha ([2]; 336 h, 1262 g a.i./ha, 14 DAA, read-out: Plant Stalk (Below 15.3-cm) Regrowth Inhibition (%)): 90%
inhibition at 1262 g/ha ([2]; 336 h, 1262 g a.i./ha, 14 DAA, read-out: Plant Terminal (Top 15.3-cm) Regrowth Inhibition (%)): 75%
inhibition at 1262 g/ha ([2]; 528 h, 1262 g a.i./ha, 22 DAA, read-out: Plant Stalk (Below 15.3-cm) Regrowth Inhibition (%)): 22%
State of Defoliation (%) ([3]; 1262 g a.i./ha, 4 DAA): 58%
State of Defoliation (%) ([3]; 1262 g a.i./ha, 7 DAA): 63%
State of Defoliation (%) ([3]; 1262 g a.i./ha, 14 DAA): 48%
inhibition at 1262 g/ha ([3]; 1262 g a.i./ha, 14 DAA, read-out: Plant Stalk (Below 15.3-cm) Regrowth Inhibition (%)): 80%
inhibition at 1262 g/ha ([3]; 1262 g a.i./ha, 14 DAA, read-out: Plant Terminal (Top 15.3-cm) Regrowth Inhibition (%)): 60%

CCCCSP(=O)(SCCCC)SCCCC [Tribufos, S,S,S-tributylphosphorotrithioate, reference compound]
Boll Opening (%) ([1]; 4 DAA): 70%
Desiccation (%) ([1]; 4 DAA): 32%
State of Defoliation (%) ([1]; 4 DAA): 68%
Boll Opening (%) ([1]; 11 DAA): 78%
Desiccation (%) ([1]; 11 DAA): 8%
State of Defoliation (%) ([1]; 11 DAA): 80%
State of Defoliation (%) ([1]; 21 DAA): 35%
inhibition at 841 g/ha ([1]; Gossypium hirsutum, 504 h, read-out: Regrowth Inhibition (%)): 25%
State of Defoliation (%) ([2]; 421 g a.i./ha, 4 DAA): 49%
State of Defoliation (%) ([2]; 421 g a.i./ha, 7 DAA): 76%
State of Defoliation (%) ([2]; 421 g a.i./ha, 14 DAA): 81%
inhibition at 421 g/ha ([2]; 336 h, read-out: Plant Stalk (Below 15.3-cm) Regrowth Inhibition (%)): 84%
inhibition at 421 g/ha ([2]; 336 h, read-out: Plant Terminal (Top 15.3-cm) Regrowth Inhibition (%)): 47%
inhibition at 421 g/ha ([2]; 528 h, read-out: Plant Stalk (Below 15.3-cm) Regrowth Inhibition (%)): 29%
State of Defoliation (%) ([3]; 421 g a.i./ha, 4 DAA): 50%
State of Defoliation (%) ([3]; 421 g a.i./ha, 7 DAA): 56%
State of Defoliation (%) ([3]; 421 g a.i./ha, 14 DAA): 53%
inhibition at 421 g/ha ([3]; read-out: Plant Stalk (Below 15.3-cm) Regrowth Inhibition (%)): 81%
inhibition at 421 g/ha ([3]; read-out: Plant Terminal (Top 15.3-cm) Regrowth Inhibition (%)): 44%
